In patent US20190029974A1, “METHODS FOR TREATING SKIN DISORDERS AND CONDITIONS UTILIZING HAPTENS” (RXi Pharmaceuticals Corporation, priority 2015, published 2019):

Assays:
[1] = Solubility of DPCP in solvents for gel and ointment formulations; format: physicochemical
Experimental: (§1) The compatibility and solubility of DPCP was determined in both isopropyl myristate (IPM) as well as Polysorbate 80 (PS80). […] Next, the stability of DPCP in these solvents was determined. A solution of 0.4% DPCP in isopropyl myristate and a solution of 0.4% DPCP in Polysorbate 80 was placed at 50° C. for two weeks. The stability of DPCP in these solvents was determined using reverse phase HPLC on a C18 column.

[2] = Stability of 0.4% DPCP solutions in solvents at 50° C., reverse phase HPLC on a C18 column; format: physicochemical
Experimental: as §1
For the development of a gel, the stability of DPCP was determined in both Ethanol (ETOH) and Isopropanol (IPA) was determined (0.4% DPCP solutions in each solvent was placed at 50° C. for two weeks; FIG. 3. All solutions contained 0.1% BHT). […] However, DPCP was stable in IPA. The stability of DPCP in the above solvents was determined using reverse phase HPLC on a C18 column.

## O=c1c(-c2ccccc2)c1-c1ccccc1 [DPCP, Diphenylcyclopropenone]
[1]; Polysorbate 80 (PS80)
  solubility of DPCP in PS80: highly soluble
[1]; isopropyl myristate (IPM)
  solubility of DPCP in IPM: about 1.1 % w/w
[2]; 0.4% DPCP in Polysorbate 80, 50° C., two weeks
  stability of DPCP in PS80: some degradation
[2]; 0.4% DPCP in ethanol, 0.1% BHT, in the presence of citric acid, 50° C., two weeks
  stability of DPCP in ETOH: Some degradation
[2]; 0.4% DPCP in isopropanol, 0.1% BHT, 50° C., two weeks
  stability of DPCP in IPA: stable
[2]; 0.4% DPCP in isopropyl myristate, 50° C., two weeks
  stability of DPCP in IPM: stable
[2]; PS80 with butylated hydroxytoloune (BHT)
  effect of BHT on degradation of DPCP in PS80: reduce the amount of degradation
